Assay results as given in patent publication US5407951A, “Sulphonamidocycloalkane compounds, pharmaceutical compositions containing them, and methods of use thereof” (Boehringer Mannheim GmbH, priority 1988, dated 1995).

Tests used:
[1] = test system: Platelet-rich human blood plasma; experiment: In vitro inhibition of platelet aggregation induced by thromboxane mimetic U46619 (Born and Cross, aggregometer); type: cell-based; settings: citrated platelet-rich human plasma, measured for five minutes
Protocol: (a) In vitro Inhibition of Platelet Aggregation.
Platelet-rich human blood plasma was treated with 3.2% citrate at a volume ratio of 1:9 to inhibit clotting. A selective thromboxane mimetic, U46619, which is a stable analog of the prostaglandin endoperoxide PGH2, as described by Coleman et al., Brit. J. Pharmocol. 68,127P (1980) was obtained from Upjohn & Co., Kalamazoo, Mich.
The test protocol was that described by Born and Cross, J. Physiol. 168,178 (1963) with the degree of aggregation measured using a 4-channel aggregometer (Profiler, Bio/Data Co.). The compounds of this invention, Examples 2.1, 4(cis) 4(trans), 6 ad 7 were diluted in saline, at final concentrations of 10^-4 to 10^-9M. Saline was used as a control. Measurements were made for a period of five minutes, After addition of the tromboxane mimetic. From the data obtained, an inhibitory concentration IC50 was calculated using standard methods.

Male NMRI mice = experiment: In vivo inhibition of induced pulmonary emboli (survival after lethal dose of U46619); settings: lethal dose U46619 (800-1000 ug/kg) into tail vein four hours later, survival after 24 hours, groups of 5; for Survival Rate of Mouse 1 mg/kg, 4 h in %: 1 mg/kg by gastric route in 1% methyl cellulose; for Survival Rate of Mouse 25 mg/kg, 4 h in %: 25 mg/kg by gastric route in 1% methyl cellulose
Protocol: (b) In vivo Inhibition of Induced Pulmonary Emboli
Male NMRI mice, having a body weight of approximately 25g, were separated into groups of 5. Representative examples of the compounds of this invention listed in part (a) were suspended 1% methyl cellulose and administered to the animals by gastric incubation in amounts providing 1/mg/kg and 25/mg/kg of the antagonist, Four hours after incubation, a previously determined lethal dose of U46619 (800-1000 ug/kg) was injected into the tail vein of each animals. The survival rates for each group of mice was determined after 24 hours. The results are shown in Table 1 and indicate correlation with the IC50 measured in vitro.

Compound | IC50 [1] [nM] | Survival Rate of Mouse 1 mg/kg, 4 h in % (Male NMRI mice) [%] | Survival Rate of Mouse 25 mg/kg, 4 h in % (Male NMRI mice) [%]
O=C(CC1CCC(CCNS(=O)(=O)c2ccc(Cl)cc2)CC1)Nc1nnn[nH]1 (stereo not drawn) [Example 6, 4-[2-(4-Chlorobenzenesulphonylamino)-ethyl]-cyclohexylacetic acid (tetrazol-5-yl-amide)] | 2500 | 100 | 100
O=C(O)C1CCC(CCNS(=O)(=O)c2ccc(Cl)cc2)CC1 (stereo not drawn) [Example 2.1] | 2000 | 100 | 100
O=C(CO[C@H]1CC[C@H](CCNS(=O)(=O)c2ccc(Cl)cc2)CC1)Nc1nnn[nH]1 [4 (trans), trans-4-[2-(4-chlorobenzenesulphonylamino)-ethyl]-cyclohexyloxy acetic acid (tetrazol-5-yl-amide)] | 5800 | 60 | 100
O=C(CO[C@H]1CC[C@@H](CCNS(=O)(=O)c2ccc(Cl)cc2)CC1)Nc1nnn[nH]1 [4 (cis), cis-4-[2-(4-Chlorobenzenesulphonylamino)-ethyl]cyclohexyloxyacetic acid (tetrazol-5-yl)-amide] | 4600 | 100 | 100
O=S(=O)(NCCC1CCC(OCc2nn[nH]n2)CC1)c1ccc(Cl)cc1 (stereo not drawn) [Example 7, 1-[2-(4-Chlorobenzenesulphonylamino)-ethyl]-4-(tetrazol-5-yl-methyleneoxy)-cyclohexane] | 420 | 100 | 100
